Key:
Assay type in all cases: functional
[1] = Inhibition of TBARS formation
[2] = Superoxide radical scavenging activity at 0.5 mg/ml
[3] = Inhibition of TBARS formation at 0.5 mg/ml
[4] = Hydrogen peroxide radical scavenging activity at 0.1 mg/ml
[5] = Nitric oxide radical scavenging activity assessed as reduction in nitrite concentration at 0.5 mg/ml; design: scale not given: the % may be the effect or the level left
[6] = Hydrogen peroxide radical scavenging activity at 0.2 mg/ml
[7] = Nitric oxide radical scavenging activity

## COC1=CC(=O)[C@@]2(O)C[C@H]3[C@H](c4ccccc4C3(C)C)[C@@H](O)C2=C1
[1]
  Activity: Dose-dependent effect
[2]
  Activity: 60%
[3]
  inhibition: 59%
[4]
  Activity: 32%
[5]
  Activity: 10.7%
[6]
  Activity: 39%
[7]
  Activity: Dose-dependent effect
